Measurements: PubChem BioAssay (NCI)
Values joined by “and” are separate entries in the source; they are usually repeats but may differ in a detail not shown here. Equal entries are not always repeated.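 Exposure lasted 48 hours, with cells grown in 96-well plates and compounds tested at five concentrations. At the TGI there is no net growth.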

Experiments:
Test in all cases: NCI anticancer screen, dose series, 48 h
KM20L2 colon = system: KM20L2 colon
SK-OV-3 ovarian = system: SK-OV-3 ovarian
HT29 colon = system: HT29 colon
SNB-19 CNS = system: SNB-19 CNS
OVCAR-5 ovarian = system: OVCAR-5 ovarian
DMS 114 small cell lung = system: DMS 114 small cell lung
SK-MEL-28 melanoma = system: SK-MEL-28 melanoma
XF 498 CNS = system: XF 498 CNS
ACHN renal = system: ACHN renal
HOP-62 NSCLC = system: HOP-62 NSCLC
HL-60(TB) leukemia = system: HL-60(TB) leukemia
M19-MEL melanoma = system: M19-MEL melanoma
NCI-H460 lung = system: NCI-H460 lung
MOLT-4 leukemia = system: MOLT-4 leukemia
LOX IMVI melanoma = system: LOX IMVI melanoma
HCC-2998 colon = system: HCC-2998 colon
UACC-62 melanoma = system: UACC-62 melanoma
OVCAR-4 ovarian = system: OVCAR-4 ovarian
RXF 393 renal = system: RXF 393 renal
M14 melanoma = system: M14 melanoma
DLD-1 colon = system: DLD-1 colon
NCI-H226 lung = system: NCI-H226 lung
SK-MEL-2 melanoma = system: SK-MEL-2 melanoma
UO-31 renal = system: UO-31 renal
LXFL 529 NSCLC = system: LXFL 529 NSCLC
RPMI-8226 leukemia = system: RPMI-8226 leukemia
DMS 273 small cell lung = system: DMS 273 small cell lung
NCI-H23 lung = system: NCI-H23 lung
CCRF-CEM leukemia = system: CCRF-CEM leukemia
SF-268 CNS = system: SF-268 CNS
SNB-75 CNS = system: SNB-75 CNS
HCT-15 colon = system: HCT-15 colon
SK-MEL-5 melanoma = system: SK-MEL-5 melanoma
SW-620 colon = system: SW-620 colon
SN12C renal = system: SN12C renal
OVCAR-8 ovarian = system: OVCAR-8 ovarian
HOP-18 NSCLC = system: HOP-18 NSCLC
NCI-H522 lung = system: NCI-H522 lung
EKVX NSCLC = system: EKVX NSCLC
A498 renal = system: A498 renal
CAKI-1 renal = system: CAKI-1 renal
786-0 renal = system: 786-0 renal
MALME-3M melanoma = system: MALME-3M melanoma
COLO 205 colon = system: COLO 205 colon
KM12 colon = system: KM12 colon
TK-10 renal = system: TK-10 renal
UACC-257 melanoma = system: UACC-257 melanoma
SF-295 CNS = system: SF-295 CNS
K-562 leukemia = system: K-562 leukemia
SF-539 CNS = system: SF-539 CNS
A549 NSCLC = system: A549 NSCLC
IGROV1 ovarian = system: IGROV1 ovarian
OVCAR-3 ovarian = system: OVCAR-3 ovarian
SNB-78 CNS = system: SNB-78 CNS
HOP-92 NSCLC = system: HOP-92 NSCLC
SR leukemia = system: SR leukemia
HCT-116 colon = system: HCT-116 colon
U251 CNS = system: U251 CNS

Measured: TGI

COc1ccc(NC(=O)CC/C(CC(=O)c2ccco2)=N/NC(=O)C(N)=O)cc1
not listed: SNB-78 CNS | HOP-92 NSCLC | SR leukemia | HCT-116 colon | U251 CNS
> 100 µM: all other assays above

COc1ccc(C2=C[C@]3(O)CCCN3C[C@@H]2c2ccc(OC)c(OC)c2)cc1
0.000527 µM: HOP-92 NSCLC
0.000164 µM: SK-MEL-2 melanoma
0.000396 µM: M19-MEL melanoma
0.00185 µM: ACHN renal
0.0384 µM: OVCAR-4 ovarian
0.101 µM: HCC-2998 colon
0.611 µM: TK-10 renal
0.000172 µM: DMS 273 small cell lung
0.0223 µM: RXF 393 renal
0.449 µM: XF 498 CNS
0.000214 µM: HOP-18 NSCLC
0.00112 µM: HCT-116 colon
0.00216 µM and 0.0197 µM: SK-MEL-28 melanoma
0.0338 µM: SNB-78 CNS
13.9 µM: RPMI-8226 leukemia
0.00162 µM: CAKI-1 renal
> 100 µM: SN12C renal
0.00183 µM: SW-620 colon
0.000105 µM: NCI-H23 lung
< 0.0001 µM: HL-60(TB) leukemia | M14 melanoma | NCI-H226 lung | SR leukemia | SK-MEL-5 melanoma | NCI-H522 lung | MALME-3M melanoma | COLO 205 colon

O=c1oc(-c2ccccc2)cn1-c1ccccc1
> 100 µM: KM20L2 colon | SNB-19 CNS | SK-MEL-28 melanoma | XF 498 CNS | HOP-62 NSCLC | HL-60(TB) leukemia | SNB-78 CNS | NCI-H460 lung | MOLT-4 leukemia | LOX IMVI melanoma | HCC-2998 colon | RXF 393 renal | M14 melanoma | DLD-1 colon | NCI-H226 lung | LXFL 529 NSCLC | RPMI-8226 leukemia | DMS 273 small cell lung | NCI-H23 lung | CCRF-CEM leukemia | HCT-116 colon | SNB-75 CNS | SN12C renal | HOP-18 NSCLC | NCI-H522 lung | U251 CNS | 786-0 renal | K-562 leukemia | SF-539 CNS

CCC1C[N+]23CCc4c([nH]c5ccccc45)C2CC1CC3 (centres undefined)
48.9 µM: SK-MEL-5 melanoma
95.2 µM: MOLT-4 leukemia
97.4 µM: MALME-3M melanoma
not listed: SNB-19 CNS | HL-60(TB) leukemia | HOP-18 NSCLC | A498 renal | 786-0 renal | SF-539 CNS | A549 NSCLC | SNB-78 CNS
> 100 µM: all other assays above
